Laboratory results taken from US12583849B2, “KCNT1 inhibitors and methods of use” (Praxis Precision Medicines, Inc., priority 2020, dated 2026).

These molecules were tested against T1, KCNT1 (KNa1.1, Slack) (Homo sapiens, UniProt Q5JUK3) (assay: KCNT1-WT-Basal Patch Clamp Assay). Details: tetracycline inducible cell line (HEK-TREX); SyncroPatch 384PE automated patch clamp, perforated patch mode, room temperature, step from -80 mV to 0 mV.
T1 construct: expressed in transfected cells; host or cells: HEK-TREX (tetracycline-inducible cell line)
T1 sequence (Q5JUK3 1-1230): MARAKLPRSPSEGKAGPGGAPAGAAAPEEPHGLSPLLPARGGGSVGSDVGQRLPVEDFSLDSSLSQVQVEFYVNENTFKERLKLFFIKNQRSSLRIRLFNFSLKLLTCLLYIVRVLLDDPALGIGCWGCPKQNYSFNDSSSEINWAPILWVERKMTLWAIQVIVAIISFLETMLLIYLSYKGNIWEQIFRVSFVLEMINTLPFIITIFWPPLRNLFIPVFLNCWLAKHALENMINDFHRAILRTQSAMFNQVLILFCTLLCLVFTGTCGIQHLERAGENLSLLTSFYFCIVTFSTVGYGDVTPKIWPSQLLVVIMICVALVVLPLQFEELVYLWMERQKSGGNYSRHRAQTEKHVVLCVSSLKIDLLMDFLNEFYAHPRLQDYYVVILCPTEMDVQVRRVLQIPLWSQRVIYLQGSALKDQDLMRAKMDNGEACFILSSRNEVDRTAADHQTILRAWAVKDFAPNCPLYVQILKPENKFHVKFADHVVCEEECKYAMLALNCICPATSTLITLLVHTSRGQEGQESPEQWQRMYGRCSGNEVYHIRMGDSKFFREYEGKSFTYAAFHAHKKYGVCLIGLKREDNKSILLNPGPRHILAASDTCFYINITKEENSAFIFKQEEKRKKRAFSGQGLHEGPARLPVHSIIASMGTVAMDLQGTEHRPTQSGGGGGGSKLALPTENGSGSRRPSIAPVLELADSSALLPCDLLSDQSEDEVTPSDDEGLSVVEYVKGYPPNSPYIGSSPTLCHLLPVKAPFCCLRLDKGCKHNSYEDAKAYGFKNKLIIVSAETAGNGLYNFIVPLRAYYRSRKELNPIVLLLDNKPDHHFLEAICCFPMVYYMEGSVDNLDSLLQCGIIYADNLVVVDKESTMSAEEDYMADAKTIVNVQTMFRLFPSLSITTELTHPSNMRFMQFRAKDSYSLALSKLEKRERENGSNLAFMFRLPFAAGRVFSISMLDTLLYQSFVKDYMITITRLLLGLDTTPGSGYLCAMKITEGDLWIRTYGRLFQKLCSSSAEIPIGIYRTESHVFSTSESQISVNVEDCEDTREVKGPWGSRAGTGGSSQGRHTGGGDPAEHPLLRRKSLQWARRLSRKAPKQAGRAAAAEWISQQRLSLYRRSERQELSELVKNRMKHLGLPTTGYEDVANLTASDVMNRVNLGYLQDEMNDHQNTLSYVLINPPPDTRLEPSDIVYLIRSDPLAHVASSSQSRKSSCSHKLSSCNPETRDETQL
Type: cell-based
Description: KCNT1-WT-Basal—Patch Clamp Assay
Inhibition of KCNT1 (KNa1.1, Slack) was evaluated using a tetracycline inducible cell line (HEK-TREX). Currents were recorded using the SyncroPatch 384PE automated, patch clamp system. Pulse generation and data collection were performed with PatchController384 V1.3.0 and DataController384 V1.2.1 (Nanion Technologies). The access resistance and apparent membrane capacitance were estimated using built-in protocols. Current were recorded in perforated patch mode (10 μM escin) from a population of cells. The cells were lifted, triturated, and resuspended at 800,000 cells/ml. The cells were allowed to recover in the cell hotel prior to experimentation. Currents were recorded at room temperature. The external solution contained the following (in mM): NaCl 105, NMDG 40, KCl 4, MgCl2 1, CaCl2 5 and HEPES 10 (pH=7.4, Osmolarity ˜300 mOsm). The extracellular solution was used as the wash, reference and compound delivery solution. The internal solution contained the following (in mM): NaCl 70, KF 70, KCl 10, EGTA 5, HEPES 5 and Escin 0.01 (pH=7.2, Osmolarity ˜295 mOsm). Escin is made at a 5 mM stock in water, aliquoted, and stored at −20° C. The compound plate was created at 2× concentrated in the extracellular solution. The compound was diluted to 1:2 when added to the recording well. The amount of DMSO in the extracellular solution was held constant at the level used for the highest tested concentration. A holding potential of −80 mV with a 100 ms step to 0 mV was used. Mean current was measured during the step to 0 mV. […] The average mean current from 3 sweeps was calculated and the % inhibition of each compound was calculated. The % Inhibition as a function of the compound concentration was fit with a Hill equation to derive IC50, slope, min and max parameters. If KCNT1 inhibition was less than 50% at the highest tested concentration or if an IC50 could not be calculated, then a percent inhibition was reported in place of the IC50.
In this table, “A” indicates IC50 of less than or equal to 1 μM; “B” indicates inhibition of between 1 μM to 20 μM; and “C” indicates inhibition of greater than or equal to 20 μM.

Row | SMILES | IC50
1 | C[C@H](NC(=O)c1ccc(S(C)(=O)=O)s1)c1nc(-c2ccnc(C3CC3)c2)no1 [Compound I-70, (S)—N-(1-(3-(2-cyclopropylpyridin-4-yl)-1,2,4-oxadiazol-5-yl)ethyl)-5-(methylsulfonyl)thiophene-2-carboxamide] | ≤ 1000 nM
2 | COc1ccccc1C(=O)N[C@@H](C)c1nc(-c2ccnc(C3CC3)c2)no1 [Compound I-75, N-[(1S)-1-[3-(2-cyclopropyl-4-pyridyl)-1,2,4-oxadiazol-5-yl]ethyl]-2-methoxy-benzamide] | ≤ 1000 nM
3 | CC(C)Oc1cc(-c2noc([C@H](C)NC(=O)NC(C)(C)C)n2)ccn1 [II-1] | ≤ 1000 nM
4 | C[C@H](NC(=O)c1cccc(Cl)c1)c1nc(-c2ccnc(C3CC3)c2)no1 [Compound I-63, 3-chloro-N-[(1S)-1-[3-(2-cyclopropyl-4-pyridyl)-1,2,4-oxadiazol-5-yl]ethyl]benzamide] | ≤ 1000 nM
5 | CC[C@H](NC(=O)C1CCCCC1)c1nc(-c2ccnc(C(F)(F)F)c2)no1 [Compound I-20, (S)—N-(1-(3-(2-(trifluoromethyl)pyridin-4-yl)-1,2,4-oxadiazol-5-yl)propyl)cyclohexanecarboxamide] | ≤ 1000 nM
6 | C[C@H](NC(=O)NC(C)(C)C)c1nc(-c2ccnc(C3CC3)c2)no1 [II-7] | ≤ 1000 nM
7 | C[C@H](NC(=O)C1CCCN(C)C1)c1nc(-c2ccnc(C(F)(F)F)c2)no1 (stereo partly drawn) [Compound I-68, 1-methyl-N—((S)-1-(3-(2-(trifluoromethyl)pyridin-4-yl)-1,2,4-oxadiazol-5-yl)ethyl)piperidine-3-carboxamide] | ≥ 20000 nM
8 | Cc1ncc(C(=O)NC(C)c2nc(-c3cccc(F)c3)no2)c(C)n1 (centres unmarked) [Compound I-48, N-[1-[3-(3-fluorophenyl)-1,2,4-oxadiazol-5-yl]ethyl]-2,4-dimethyl-pyrimidine-5-carboxamide] | ≥ 20000 nM
9 | C[C@H](NC(=O)c1cccc(F)c1)c1nc(-c2ccnc(C3CC3)c2)no1 [Compound I-89, (S)—N-(1-(3-(2-cyclopropylpyridin-4-yl)-1,2,4-oxadiazol-5-yl)ethyl)-3-fluorobenzamide] | ≤ 1000 nM
10 | CC(NC(=O)c1cn2c(n1)CCCC2)c1nc(-c2cccc(F)c2)no1 (centres unmarked) [Compound I-52, N-[1-[3-(3-fluorophenyl)-1,2,4-oxadiazol-5-yl]ethyl]-5,6,7,8-tetrahydroimidazo[1,2-a]pyridine-2-carboxamide] | ≥ 20000 nM
11 | CC(NC(=O)c1ccc2c(c1)OCCO2)c1nc(-c2cccc(F)c2)no1 (centres unmarked) [Compound I-51, N-[1-[3-(3-fluorophenyl)-1,2,4-oxadiazol-5-yl]ethyl]-2,3-dihydro-1,4-benzodioxine-6-carboxamide] | 1000 to 20000 nM
12 | CCOc1cc(-c2noc([C@H](C)NC(=O)C3CCCC3)n2)ccn1 [Compound I-45, (S)—N-(1-(3-(2-ethoxypyridin-4-yl)-1,2,4-oxadiazol-5-yl)ethyl)cyclopentanecar-boxamide] | ≤ 1000 nM
13 | Cc1nc(C(F)(F)F)ccc1C(=O)NC(C)c1nc(-c2cccc(F)c2)no1 (centres unmarked) [Compound I-47, N-[1-[3-(3-fluorophenyl)-1,2,4-oxadiazol-5-yl]ethyl]-2-methyl-6-(trifluoromethyl)pyridine-3-carboxamide] | 1000 to 20000 nM
14 | COC1CCC(C(=O)N[C@@H](C)c2nc(-c3ccnc(C(F)(F)F)c3)no2)CC1 (stereo partly drawn) [Compound I-69, (S)-4-methoxy-N-(1-(3-(2-(trifluoromethyl)pyridin-4-yl)-1,2,4-oxadiazol-5-yl)ethyl)cyclohexane-1-carboxamide] | 1000 to 20000 nM
15 | C[C@H](NC(=O)C1CCN(C)CC1)c1nc(-c2ccnc(C(F)(F)F)c2)no1 [Compound I-65, (S)-1-methyl-N-(1-(3-(2-(trifluoromethyl)pyridin-4-yl)-1,2,4-oxadiazol-5-yl)ethyl)piperidine-4-carboxamide] | ≥ 20000 nM
16 | C[C@H](NC(=O)c1ccc(Br)s1)c1nc(-c2ccnc(C3CC3)c2)no1 [Compound I-57, (S)-5-bromo-N-(1-(3-(2-cyclopropylpyridin-4-yl)-1,2,4-oxadiazol-5-yl)ethyl)thiophene-2-carboxamide] | ≤ 1000 nM

Results, then the molecule that gave them:

Row | IC50 | SMILES
17 | ≤ 1000 nM | C[C@H](NC(=O)c1nc(C(F)(F)F)cs1)c1nc(-c2ccnc(C(F)(F)F)c2)no1 [Compound I-5, (S)-4-(trifluoromethyl)-N-(1-(3-(2-(trifluoromethyl)pyridin-4-yl)-1,2,4-oxadiazol-5-yl)ethyl)thiazole-2-carboxamide]
18 | ≥ 20000 nM | C[C@H](NC(=O)c1c[nH]c(C(F)(F)F)n1)c1nc(-c2ccnc(C(F)(F)F)c2)no1 [Compound I-4, (S)-2-(trifluoromethyl)-N-(1-(3-(2-(trifluoromethyl)pyridin-4-yl)-1,2,4-oxadiazol-5-yl)ethyl)-1H-imidazole-4-carboxamide]
19 | ≥ 20000 nM | C[C@H](NC(=O)C1CCCCN1C)c1nc(-c2ccnc(C(F)(F)F)c2)no1 (stereo partly drawn) [Compound I-66, 1-methyl-N—((S)-1-(3-(2-(trifluoromethyl)pyridin-4-yl)-1,2,4-oxadiazol-5-yl)ethyl)piperidine-2-carboxamide]
20 | 1000 to 20000 nM | C[C@H](NC(=O)c1ccc(C(F)(F)F)cn1)c1nc(-c2ccnc(C(F)(F)F)c2)no1 [Compound I-1, (S)-5-(trifluoromethyl)-N-(1-(3-(2-(trifluoromethyl)pyridin-4-yl)-1,2,4-oxadiazol-5-yl)ethyl)picolinamide]
21 | ≤ 1000 nM | C[C@H](NC(=O)C1CCCCC1)c1nc(-c2ccnc(C(F)(F)F)c2)no1 [Compound I-9]
22 | ≤ 1000 nM | C[C@H](NC(=O)C1CCC(F)(F)CC1)c1nc(-c2ccnc(C(F)(F)F)c2)no1 [Compound I-3, (S)-4,4-difluoro-N-(1-(3-(2-(trifluoromethyl)pyridin-4-yl)-1,2,4-oxadiazol-5-yl)ethyl)cyclohexane-1-carboxamide]
23 | ≥ 20000 nM | C[C@H](NC(=O)c1ccccn1)c1nc(-c2ccnc(C(F)(F)F)c2)no1 [Compound I-7, (S)—N-(1-(3-(2-(trifluoromethyl)pyridin-4-yl)-1,2,4-oxadiazol-5-yl)ethyl)picolinamide]
24 | 1000 to 20000 nM | C[C@H](NC(=O)c1cccnc1)c1nc(-c2ccnc(C(F)(F)F)c2)no1 [Compound I-11, (S)—N-(1-(3-(2-(trifluoromethyl)pyridin-4-yl)-1,2,4-oxadiazol-5-yl)ethyl)nicotinamide]
25 | ≤ 1000 nM | Cc1nc(C(F)(F)F)ccc1C(=O)N[C@@H](C)c1nc(-c2ccnc(C3CC3)c2)no1 [Compound I-53, (S)—N-(1-(3-(2-cyclopropylpyridin-4-yl)-1,2,4-oxadiazol-5-yl)ethyl)-2-methyl-6-(trifluoromethyl)nicotinamide]
26 | ≥ 20000 nM | C[C@H](NC(=O)c1ccno1)c1nc(-c2ccnc(C(F)(F)F)c2)no1 [Compound I-23, (S)—N-(1-(3-(2-(trifluoromethyl)pyridin-4-yl)-1,2,4-oxadiazol-5-yl)ethyl)isoxazole-5-carboxamide]
